Results taken from patent publication US20230137092A1, “Composition and Method for the Treatment and Prevention of Cardiac, Pulmonary, Dermal, and Renal Fibrosis” (EMERALD HEALTH PHARMACEUTICALS INC., priority 2020, published 2023).

Legend:
[1] = test system: NFAT; experiment: Gal4-NFAT / Gal4-Luc reporter assay in hICF; format: cell-based, human; conditions: hICF transfected with Gal4-Luc and Gal4-NFAT, stimulated 6 hours
Procedure: hICF cells were transiently transfected for 24 hours with the Gal4-Luc reporter plasmid (which includes five Gal4 DNA binding sites fused to the luciferase gene) and the Gal4-NFAT1-415plasmid for 24 hours using Roti-Fect (Carl Roth GmbH & Co. KG, Karlsruhe, Germany). Then cells were stimulated for 6 hours and luciferase activity in the cell lysates was measured. The specific transactivation expressed as a percentage of activation relative to control. Compound of Formula (VIII) inhibited Ang II-induced NFAT activation (FIG. 16B).

[2] = test system: ERK1+2; experiment: Ang II-induced ERK1+2 phosphorylation in hICF, immunoblot; format: cell-based, human; conditions: hICF preincubated with compound, Ang II for 30 minutes
Procedure: The effect of compound of Formula (VIII) on Ang II signaling pathways in hICF was investigated. ERK1+2 and NFAT activation are two pathways activated by Ang-II (Wakatsuki et al., 2004, Trends Biochem Sci, 29:609-617). hICF were preincubated with compound of Formula (VIII), treated with Ang II for 30 minutes, washed with PBS and proteins extracted in 50 μL of lysis buffer (50 mM Tris-HCl pH 7.5, 150 mM NaCl, 1% (v/v) NP-40, 10% (v/v) glycerol, 10 mM NaF, 1 mM Na3VO4, aprotinin (10 μg/ml), leupeptine (10 μg/ml), pepstatin (1 μg/ml) and 1 mM PMSF saturated). Separated proteins in 10% SDS/PAGE gels were transferred to PVDF membranes and blocked in TBS solution containing 0.1% Tween 20 and 5% bovine serum albumin (BSA) for 1 hour at room temperature. Immunodetection of specific proteins was carried out by incubation with primary antibodies against p-ERK (1:1000; #4695 Cell Signaling Technology) and ERK (1:1000, M5670, Sigma). Membranes were incubated with horseradish peroxidase-conjugated secondary antibody was added and proteins detected by chemiluminescence system (GE Healthcare Europe GmbH). Compound of Formula (VIII) inhibited Ang II-induced ERK1+2 phosphorylation (FIG. 16B).

Ang II-induced NFAT activation (luciferase) [1]: inhibited
Structure (SMILES): CCCCc1nc(Cl)c(CO)n1Cc1ccc(-c2ccccc2-c2nn[nH]n2)cc1 [Losartan, reference compound]
Ang II-induced ERK1+2 phosphorylation [2]: inhibited
